6 molecules from patent US4910196A, “Highly soluble antibacterially active organic salts of pyridobenzothiazines” (Mediolanum Farmaceutici Srl, priority 1986, dated 1990) can be followed below.

A short description of data set [1]: pH of the aqueous solution. It counts as physicochemical. The conditions noted are these: for pH: in solution in water.
The next data set is described as follows: physchem. The conditions noted are these: water, Solubility in H2O.

Where a name gives a salt, the structure may show the parent alone.

The molecule `CN1CCN(c2c(F)cc3c(=O)c(C(=O)O)cn4c3c2SCC4)CC1` [9-fluoro-10[N-(4'-methyl)piperazinyl]-7-oxo-2,3-dihydro-7H-pyrido[1,2,3 de][1,4]benzothiazine-6-carboxylic acid hydrochloride, reference compound] displayed a water solubility of 8 mg/mL.
In turn, `CN1CCN(c2c(F)cc3c(=O)c(C(=O)O)cn4c3c2SCC4)CC1` [Salt with L-tartaric acid] gave a water solubility of 6 mg/mL. Also, the pH in data set [1] is on record as 4.09-4.10.
`CN1CCN(c2c(F)cc3c(=O)c(C(=O)O)cn4c3c2SCC4)CC1` [Salt with citric acid] registered a water solubility of 2.7 mg/mL. Moreover, the pH in data set [1] is reported as 3.99-4.00.
For the molecule `CN1CCN(c2c(F)cc3c(=O)c(C(=O)O)cn4c3c2SCC4)CC1` [Salt with gluconic acid], the water solubility was 360 mg/mL. Further, the “pH values (in words)” value in data set [1] (in solution) was “particularly high pH”. For the same molecule, in data set [1], the pH is on record as 5.07-5.10. In data set [1] (listed as gluconate), the pH entry is recorded as “about 5”. The solubility in the data set “physchem” is 360 mg/mL.
In the case of `CN1CCN(c2c(F)cc3c(=O)c(C(=O)O)cn4c3c2SCC4)CC1` [Salt with malonic acid], the water solubility turned out to be 3 mg/mL. In addition, the pH in data set [1] worked out at 4.22.
`CN1CCN(c2c(F)cc3c(=O)c(C(=O)O)cn4c3c2SCC4)CC1` [methanesulphonate, 9-fluoro-10[N-(4'-methyl)piperazinyl]-7-oxo-2,3-dihydro-7H-pyrido[1,2,3 de][1,4]benzothiazine-6-carboxylic acid methanesulphonate]: the water solubility was found to be 87 mg/mL. Besides, the pH result in data set [1] is given as “approximately 3”.

Usually solubility stands for the dissolved amount per volume that the medium holds. The low end stands for little dissolved substance, the high end for much dissolved substance.
